According to patent US20240158446A1, “CYCLIC COMPOUND HAVING SELECTIVE INHIBITORY ACTION ON KRAS OVER HRAS AND NRAS” (CHUGAI SEIYAKU KABUSHIKI KAISHA, priority 2021, published 2024):
pKd: −log10 of the molar value. *1 amine or outer side, *2 acyl side, *3 side chain or, on linkers, in order; H or OH if unused. Where a SMILES comes first, the peptide text is derived from it. Bridges are numbered along the chain shown (N, C = ends). [ ]: non-standard residue; d: D form. The star is where a group is joined. hPhe(3-Cl-4-CF3) = N[C@@H](CCc1ccc(C(F)(F)F)c(Cl)c1)C(=O)O; NPrPhe(4-CF3) = CCCN[C@@H](Cc1ccc(C(F)(F)F)cc1)C(=O)O; NEtAsp = CCN([C@@H](CC(=O)[*:3])C(=O)[*:2])[*:1]; NMeGly(cPent) = CN[C@H](C(=O)O)C1CCCC1; NMeD = CN[C@@H](CC(=O)O)C(=O)O; NMeL = CN[C@@H](CC(C)C)C(=O)O; Piperidide = C1CCN(*)CC1; Ac4c = NC1(C(=O)O)CCC1; Sar = CNCC(=O)O

Assays:
[1] = biological target: GDP-bound KRAS wild-type protein (Homo sapiens, UniProt P01116); assay: Binding to KRAS by surface plasmon resonance (SPR), Single Cycle Kinetics; details: SPR, Single Cycle Kinetics, GDP-bound KRAS wild-type protein; read-out: KRAS KD
GDP-bound KRAS wild-type protein, sequence (P01116 whole entry): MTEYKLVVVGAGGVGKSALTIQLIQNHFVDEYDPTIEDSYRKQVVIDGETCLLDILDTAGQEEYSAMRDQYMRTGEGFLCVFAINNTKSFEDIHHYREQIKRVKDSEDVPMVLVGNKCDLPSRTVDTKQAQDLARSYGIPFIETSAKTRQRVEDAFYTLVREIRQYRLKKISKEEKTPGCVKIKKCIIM

[2] = tested on: human lung cancer strain NCI-H441; assay: cells; details: NCI-H441, 96 h, read-out: NCI-H441 IC50 (nM), NCI-H441 cell proliferation, 4 days, CellTiter-Glo;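 further: cell proliferation inhibition after four days measured by CellTiter-Glo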
[3] = biological target: GDP-bound NRAS wild-type protein (Homo sapiens, UniProt P01111); assay: Binding to NRAS by surface plasmon resonance (SPR), Single Cycle Kinetics; details: ratio of KD for GDP-bound NRAS wild-type protein to KD for KRAS, SPR
GDP-bound NRAS wild-type protein, sequence (P01111 whole entry): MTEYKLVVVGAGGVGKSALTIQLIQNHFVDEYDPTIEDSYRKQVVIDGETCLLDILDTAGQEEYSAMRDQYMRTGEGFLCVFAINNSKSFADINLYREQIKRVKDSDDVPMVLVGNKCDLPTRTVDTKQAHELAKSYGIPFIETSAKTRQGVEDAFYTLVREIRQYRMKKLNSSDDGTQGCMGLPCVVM

[4] = biological target: GDP-bound HRAS wild-type protein (Homo sapiens, UniProt P01112); assay: Binding to HRAS by surface plasmon resonance (SPR), Single Cycle Kinetics; details: ratio of KD for GDP-bound HRAS wild-type protein to KD for KRAS, SPR
GDP-bound HRAS wild-type protein, sequence (P01112 whole entry): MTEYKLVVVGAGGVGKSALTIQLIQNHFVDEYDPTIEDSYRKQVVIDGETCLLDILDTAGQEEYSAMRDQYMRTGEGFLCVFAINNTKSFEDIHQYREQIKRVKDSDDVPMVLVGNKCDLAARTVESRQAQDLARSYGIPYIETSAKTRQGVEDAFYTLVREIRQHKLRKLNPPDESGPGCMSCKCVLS

Compound	pKd [1]	IC50 [2]	NRAS/KRAS (KD ratio) [3]	HRAS/KRAS (KD ratio) [4]
CCO[C@@H]1C[C@H]2C(=O)NC3(CC(C)(C)C3)C(=O)N(C)[C@@H](C3CCCC3)C(=O)N(C)[C@H](CC)CC(=O)N(C)[C@@H](CC3CC3)C(=O)N[C@@H]([C@@H](C)CC)C(=O)N(C)CC(=O)N(C)[C@H]3C/C=C\CCN(C3=O)[C@@H](Cc3ccc(C(F)(F)F)cc3)C(=O)N(C)CC(=O)N[C@@H](CCc3cc(F)c(C(F)(F)F)c(F)c3)C(=O)N2C1 [PP1629]	9.44	20.7 nM	B (a compound having 3 or more and less than 10 is denoted as B)	B (a compound having 3 or more and less than 10 is denoted as B)
CCCN1C(=O)CN(C)C(=O)CN(C)C(=O)[C@H]([C@@H](C)CC)NC(=O)[C@H](CC(C)C)N(C)C(=O)C[C@@H](C(=O)N(C)C)N(CC)C(=O)[C@H](C2CCCC2)N(C)C(=O)C2(CCC2)NC(=O)[C@@H]2CCCN2C(=O)[C@H](CCc2ccc(C(F)(F)F)c(Cl)c2)NC(=O)CN(C)C(=O)[C@@H]1Cc1ccc(C(F)(F)F)cc1 [PP1956] ([NMeL]I[Sar][Sar][NPrPhe(4-CF3)][Sar][hPhe(3-Cl-4-CF3)]P[Ac4c][NMeGly(cPent)][NEtAsp]-NMe2; lactam N-11)	9.55	2.2 nM	B (a compound having 3 or more and less than 10 is denoted as B)	B (a compound having 3 or more and less than 10 is denoted as B)
CCCN1C(=O)CN(C)C(=O)CN(C)C(=O)[C@H]([C@@H](C)CC)NC(=O)[C@H](CC(C)C)N(C)C(=O)C[C@@H](C(=O)N2CCCCC2)N(C)C(=O)[C@H](C2CCCC2)N(C)C(=O)C2(CCC2)NC(=O)[C@@H]2CCCN2C(=O)[C@H](CCc2ccc(C(F)(F)F)c(Cl)c2)NC(=O)CN(C)C(=O)[C@@H]1Cc1ccc(C(F)(F)F)cc1 [PP1930] ([NMeL]I[Sar][Sar][NPrPhe(4-CF3)][Sar][hPhe(3-Cl-4-CF3)]P[Ac4c][NMeGly(cPent)][NMeD]-Piperidide; lactam N-11)	9.64	7 nM	B (a compound having 3 or more and less than 10 is denoted as B)	C (A compound having a KD ratio of 0.1 or more and less than 3 is denoted as C)
C#CC[C@H]1C(=O)N[C@@H]([C@@H](C)CC)C(=O)N(C)CC(=O)N(C)[C@H]2C/C=C\CCN(C2=O)[C@@H](Cc2ccc(C(F)(F)F)cc2)C(=O)N(C)CC(=O)N[C@@H](CCc2cc(F)c(C(F)(F)F)c(F)c2)C(=O)N2C[C@H](F)C[C@H]2C(=O)NC2(CC(C)(C)C2)C(=O)N(C)[C@@H](C2CCCC2)C(=O)N(C)[C@H](C(=O)N(C)CCC)CC(=O)N1C [PP1692]	9.96	4.3 nM	AA (a compound having 20 or more is denoted as AA)	A (a compound having 10 or more and less than 20 is denoted as A)
CC[C@H](C)[C@@H]1NC(=O)[C@H](CC2CC2)N(C)C(=O)C[C@@H](C(=O)N(C)C)N(C)C(=O)[C@H](C2CCCC2)N(C)C(=O)C2(CC(C)(C)C2)NC(=O)[C@@H]2CC(F)(F)CN2C(=O)[C@H](CCc2cc(F)c(C(F)(F)F)c(F)c2)NC(=O)CN(C)C(=O)[C@H](Cc2ccc(C(F)(F)F)cc2)N2CC/C=C\C[C@@H](C2=O)N(C)C(=O)CN(C)C1=O [PP1713]	10.02	7.9 nM	A (a compound having 10 or more and less than 20 is denoted as A)	A (a compound having 10 or more and less than 20 is denoted as A)
CCO[C@@H]1C[C@H]2C(=O)NC3(CC(F)(F)C3)C(=O)N(C)[C@@H](C3CCCC3)C(=O)N3CCC[C@@H]3CC(=O)N(C)[C@@H](CC3CC3)C(=O)N[C@@H]([C@@H](C)CC)C(=O)N(C)CC(=O)N(C)[C@H]3C/C=C\CCN(C3=O)[C@@H](Cc3ccc(C(F)(F)F)cc3)C(=O)N(C)CC(=O)N[C@@H](CCc3cc(F)c(C(F)(F)F)c(F)c3)C(=O)N2C1 [PP1615]	9.35	20.9 nM	B (a compound having 3 or more and less than 10 is denoted as B)	B (a compound having 3 or more and less than 10 is denoted as B)
CC[C@H](C)[C@@H]1NC(=O)[C@H](CC(C)C)N(C)C(=O)C[C@@H](C(=O)N(C)C)N(C)C(=O)[C@H](C2CCCC2)N(C)C(=O)C2(CCC2)NC(=O)[C@@H]2C[C@H](C)CN2C(=O)[C@H](CCc2cc(F)c(C(F)(F)F)c(F)c2)NC(=O)CN(C)C(=O)[C@H](Cc2ccc(C)cc2)N2CC/C=C\C[C@@H](C2=O)N(C)C(=O)CN(C)C1=O [PP1864]	10.19	10.2 nM	A (a compound having 10 or more and less than 20 is denoted as A)	B (a compound having 3 or more and less than 10 is denoted as B)
CC[C@H](C)[C@@H]1NC(=O)[C@H](CC(F)F)N(C)C(=O)C[C@@H](C(=O)N(C)CC)N(C)C(=O)[C@H](C2CCCC2)N(C)C(=O)C2(CC(C)(C)C2)NC(=O)[C@@H]2C[C@@H](C)CN2C(=O)[C@H](CCc2ccc(C(F)(F)F)c(Cl)c2)NC(=O)CN(C)C(=O)[C@H](Cc2ccc(C)cc2)N2CC/C=C\C[C@@H](C2=O)N(C)C(=O)CN(C)C1=O [PP1837]	9.70	15.6 nM	A (a compound having 10 or more and less than 20 is denoted as A)	A (a compound having 10 or more and less than 20 is denoted as A)
CC[C@H](C)[C@@H]1NC(=O)[C@H](CC(F)F)N(C)C(=O)C[C@@H](C(=O)N(C)CC)N(C)C(=O)[C@H](C2CCCC2)N(C)C(=O)C2(CC(C)(C)C2)NC(=O)[C@@H]2C[C@H](C)CN2C(=O)[C@H](CCc2ccc(C(F)(F)F)c(Cl)c2)NC(=O)CN(C)C(=O)[C@H](Cc2ccc(C)cc2)N2CC/C=C\C[C@@H](C2=O)N(C)C(=O)CN(C)C1=O [PP1911]	9.68	11.7 nM	A (a compound having 10 or more and less than 20 is denoted as A)	A (a compound having 10 or more and less than 20 is denoted as A)
CC[C@H](C)[C@@H]1NC(=O)[C@H](CC)N(C)C(=O)C[C@@H](C(=O)N(C)C)N(C)C(=O)[C@H](C2CCCC2)N(C)C(=O)C2(CCC2)N(C)C(=O)[C@@H]2C[C@@H](C)CN2C(=O)[C@H](CCc2cc(F)c(C(F)(F)F)c(F)c2)NC(=O)CN(C)C(=O)[C@H](Cc2ccc(C)cc2)N2CC/C=C\C[C@@H](C2=O)N(C)C(=O)[C@@H]2CCCN2C1=O [PP1789]	9.89	9.5 nM	A (a compound having 10 or more and less than 20 is denoted as A)	A (a compound having 10 or more and less than 20 is denoted as A)

More lines, main results first:

pKd [1]	IC50 [2]	Compound	NRAS/KRAS (KD ratio) [3]	HRAS/KRAS (KD ratio) [4]
10.00	20 nM	CC[C@H](C)[C@@H]1NC(=O)[C@H](CC)N(C)C(=O)C[C@@H](C(=O)N(C)C)N(C)C(=O)[C@H](C2CCCC2)N(C)C(=O)C2(CC(C)(C)C2)NC(=O)[C@@H]2C[C@@H](C)CN2C(=O)[C@H](CCc2ccc(C(F)(F)F)c(OC)c2)NC(=O)CN(C)C(=O)[C@H](Cc2ccc(C)cc2)N2CC/C=C\C[C@@H](C2=O)N(C)C(=O)CN(C)C1=O [PP1838]	A (a compound having 10 or more and less than 20 is denoted as A)	A (a compound having 10 or more and less than 20 is denoted as A)
9.82	10.8 nM	CCCN(C)C(=O)[C@@H]1CC(=O)N(C)[C@@H](COCC)C(=O)N[C@@H]([C@@H](C)CC)C(=O)N(C)CC(=O)N(C)[C@H]2C/C=C\CCN(C2=O)[C@@H](Cc2ccc(C(F)(F)F)cc2)C(=O)N(C)CC(=O)N[C@@H](CCc2ccc(C(F)(F)F)c(OC)c2)C(=O)N2C[C@@H](C)C[C@H]2C(=O)NC2(CC(C)(C)C2)C(=O)N(C)[C@@H](C2CCCC2)C(=O)N1C [PP1991]	A (a compound having 10 or more and less than 20 is denoted as A)	A (a compound having 10 or more and less than 20 is denoted as A)
10.28	6.6 nM	CCO[C@@H]1C[C@H]2C(=O)NC3(CC(C)(C)C3)C(=O)N(C)[C@@H](C3CCCC3)C(=O)N(C)[C@H](C(=O)N(C)C)CC(=O)N(C)[C@@H](C3CCC3)C(=O)N[C@@H]([C@@H](C)CC)C(=O)N(C)CC(=O)N(C)[C@H]3C/C=C\CCN(C3=O)[C@@H](Cc3ccc(C(F)(F)F)cc3)C(=O)N(C)CC(=O)N[C@@H](CCc3ccc(C(F)(F)F)c(OC)c3)C(=O)N2C1 [PP1987]	A (a compound having 10 or more and less than 20 is denoted as A)	A (a compound having 10 or more and less than 20 is denoted as A)
9.89	36.4 nM	CCO[C@@H]1C[C@H]2C(=O)NC3(CCC3)C(=O)N(C)[C@@H](C3CCCC3)C(=O)N(C)[C@H](C(=O)N(C)CC)CC(=O)N(C)[C@@H](CC)C(=O)N[C@@H]([C@@H](C)CC)C(=O)N(C)CC(=O)N(C)[C@H]3C/C=C\CCN(C3=O)[C@@H](Cc3ccc(C)cc3)C(=O)N(C)CC(=O)N[C@@H](CCc3ccc(C(F)(F)F)c(OC)c3)C(=O)N2C1 [PP1869]	A (a compound having 10 or more and less than 20 is denoted as A)	A (a compound having 10 or more and less than 20 is denoted as A)
10.19	3.1 nM	CCO[C@@H]1C[C@H]2C(=O)NC3(CC(C)(C)C3)C(=O)N(C)[C@@H](C3CCCC3)C(=O)N(C)[C@H](C(=O)N(C)CC)CC(=O)N(C)[C@@H](COC)C(=O)N[C@@H]([C@@H](C)CC)C(=O)N(C)CC(=O)N(C)[C@H]3C/C=C\CCN(C3=O)[C@@H](Cc3ccc(C(F)(F)F)cc3)C(=O)N(C)CC(=O)N[C@@H](CCc3ccc(C(F)(F)F)c(OC)c3)C(=O)N2C1 [PP1679]	A (a compound having 10 or more and less than 20 is denoted as A)	A (a compound having 10 or more and less than 20 is denoted as A)
